These results are taken from patent publication US4247687A, “Aminoglycoside antibiotic derivatives and process for their preparation” (Farmitalia Carlo Erba S.p.A., priority 1979, dated 1981).

What all share (format): cell-based
One assay concerns P. mirabilis V 15. Description: Conventional agar dilution, MIC. The following applies: Proteus mirabilis, V15. On the procedure:
(§1) The antibacterial activity is determined by the conventional agar dilution method, and the minimal inhibitory concentration (MIC) is expressed in mcg/ml.
On the technique in general: In agar dilution, organisms are placed on agar that contains the substance at set levels.

The next assay has as its system P. sp. V 16. The experiment in a line: Conventional agar dilution, MIC. On the procedure: as §1
For the next assay, the system named is P. aeruginosa 5. The experiment in a line: Conventional agar dilution, MIC. The following applies: Pseudomonas aeruginosa. How it is done: as §1
The test system of assay [1] is Staphylococcus aureus 209 P. Description: Conventional agar dilution, MIC. On the procedure: as §1
A further assay has as its system P. aeruginosa 4. Description: Conventional agar dilution, MIC. The following applies: Pseudomonas aeruginosa. On the procedure:
as §1

In another assay the test system is P. aeruginosa B. The experiment in a line: Conventional agar dilution, MIC. The settings on record: Pseudomonas aeruginosa. On the procedure: as §1
In another assay the test system is E. coli K 12 R 55 (GNT). The experiment in a line: Conventional agar dilution, MIC. The following applies: Escherichia coli. How it is done: as §1
Another assay deals with Proteus vulgaris. Description: Conventional agar dilution, MIC. How it is done: as §1
The next assay relates to Escherichia coli K 12. Description: Conventional agar dilution, MIC. The following applies: K12. How it is done: as §1
Another assay concerns Proteus mirabilis 525. Description: Conventional agar dilution, MIC. How it is done: as §1
For assay [2], the system named is E. coli K 12 R 118 (NPT II). Description: Conventional agar dilution, MIC. The settings on record: Escherichia coli. On the procedure:
as §1

Assay [3] relates to Pseudomonas aeruginosa 9229. The experiment in a line: Conventional agar dilution, MIC. On the procedure: as §1
The subject of a further assay is P. aeruginosa 19660. The experiment in a line: Conventional agar dilution, MIC. The following applies: Pseudomonas aeruginosa. On the procedure: as §1
Another assay relates to P. aeruginosa 53585. Description: Conventional agar dilution, MIC. The settings on record: Pseudomonas aeruginosa. How it is done: as §1
A further assay deals with P. aeruginosa 53825. Description: Conventional agar dilution, MIC. The settings on record: Pseudomonas aeruginosa. How it is done: as §1
For a further assay, the system named is P. aeruginosa 6. The experiment in a line: Conventional agar dilution, MIC. The settings on record: Pseudomonas aeruginosa. How it is done: as §1
The next assay deals with P. aeruginosa 47823. The experiment in a line: Conventional agar dilution, MIC. The following applies: Pseudomonas aeruginosa. How it is done: as §1
Assay [4] relates to E. coli K 12 R 112 (NPT I). The experiment in a line: Conventional agar dilution, MIC. The settings on record: Escherichia coli. On the procedure:
as §1

For the next assay, the system named is bacterial strains. The experiment in a line: Antibacterial "in vitro" activity, conventional agar dilution (overall). The following applies: in words, compared with neomycin B and paromomycin (1). How it is done: as §1

≈ marks a conversion by molar mass, not a printed value. Like-named read-outs stand apart in the source and are kept apart here. A value given as a limit tells only on which side of the number the result lay.

Turning to `NC[C@@H]1O[C@H](O[C@H]2[C@@H](O)[C@H](O[C@@H]3[C@@H](O)[C@H](N)C[C@H](N)[C@H]3O[C@H]3O[C@H](CO)[C@@H](O)[C@H](O)[C@H]3N)O[C@@H]2CO)[C@H](N)[C@@H](O)[C@@H]1O` [Paromomycin (1), paromomycin], the MIC (usually the lowest concentration found to suppress growth) is 25 µg/mL (≈ 40.6 µM) in the assay with P. mirabilis V 15; above 100 µg/mL against P. sp. V 16; above 100 µg/mL against P. aeruginosa 5 (5); 1.55 µg/mL (≈ 2.52 µM) in [1] (Staphylococcus aureus, 209P); above 100 µg/mL against P. aeruginosa 4 (4); above 100 µg/mL against P. aeruginosa B. Further, the MIC with E. coli K 12 R 55 (GNT) is 12.5 µg/mL (≈ 20.3 µM); in the assay on Proteus vulgaris, 50 µg/mL (≈ 81.2 µM); with Escherichia coli K 12 (Escherichia coli), 12.5 µg/mL (≈ 20.3 µM); with Proteus mirabilis 525 (Proteus mirabilis, 525) it was 25 µg/mL (≈ 40.6 µM); in [2], 200 µg/mL (≈ 325 µM); in assay [3] (Pseudomonas aeruginosa, 9229) it was above 100 µg/mL. The MIC was above 100 µg/mL against P. aeruginosa 19660 (19660); above 100 µg/mL with P. aeruginosa 53585 (53585); above 100 µg/mL in the assay on P. aeruginosa 53825 (53825); above 100 µg/mL with P. aeruginosa 6 (6); above 100 µg/mL in the assay with P. aeruginosa 47823 (47823); above 200 µg/mL in assay [4].

With `NC[C@@H]1C[C@H](O)[C@@H](N)[C@@H](O[C@H]2[C@H](O[C@@H]3O[C@H](CO)[C@@H](O[C@H]4O[C@@H](CN)[C@@H](O)[C@H](O)[C@H]4N)[C@H]3O)[C@@H](O)[C@H](N)C[C@@H]2N)O1` [compound 8, 4'-deoxyneomycin B], the “antibacterial "in vitro" activity” value was “higher and broader when compared with those of neomycin B and paromomycin (1)” in the assay with bacterial strains (listed as 4'-Deoxy-neomycin B (8)); “higher and broader when compared with that of neomycin B” with bacterial strains (listed as 4'-deoxy-neomycin B (8)). Moreover, the MIC is 12.5 µg/mL (≈ 20.9 µM) with P. mirabilis V 15 (P. mirabilis V 15, agar dilution, read-out: MIC); above 100 µg/mL in the assay with P. sp. V 16; 25 µg/mL (≈ 41.8 µM) in the assay with P. aeruginosa 5 (P. aeruginosa 5, agar dilution, read-out: MIC); 0.77 µg/mL (≈ 1.29 µM) in assay [1] (Staphylococcus aureus 209 P, agar dilution, read-out: MIC); 12.5 µg/mL (≈ 20.9 µM) in the assay with P. aeruginosa 4 (P. aeruginosa 4, agar dilution, read-out: MIC); 25 µg/mL (≈ 41.8 µM) in the assay with P. aeruginosa B (P. aeruginosa B, agar dilution, read-out: MIC). The MIC amounted to 3.12 µg/mL (≈ 5.21 µM) in the assay with E. coli K 12 R 55 (GNT); 12.5 µg/mL (≈ 20.9 µM) in the assay on Proteus vulgaris (agar dilution, read-out: MIC); 3.12 µg/mL (≈ 5.21 µM) in the assay with Escherichia coli K 12 (Escherichia coli K 12, agar dilution, read-out: MIC); 6.2 µg/mL (≈ 10.4 µM) in the assay on Proteus mirabilis 525 (Proteus mirabilis 525, agar dilution, read-out: MIC); 25 µg/mL (≈ 41.8 µM) in assay [2]; 25 µg/mL (≈ 41.8 µM) in assay [3] (Pseudomonas aeruginosa 9229, agar dilution, read-out: MIC). In addition, the MIC was 25 µg/mL (≈ 41.8 µM) with P. aeruginosa 19660 (P. aeruginosa 19660, agar dilution, read-out: MIC); 25 µg/mL (≈ 41.8 µM) with P. aeruginosa 53585 (P. aeruginosa 53585, agar dilution, read-out: MIC); 50 µg/mL (≈ 83.5 µM) in the assay on P. aeruginosa 53825 (P. aeruginosa 53825, agar dilution, read-out: MIC); 12.5 µg/mL (≈ 20.9 µM) in the assay with P. aeruginosa 6 (P. aeruginosa 6, agar dilution, read-out: MIC); 12.5 µg/mL (≈ 20.9 µM) in the assay on P. aeruginosa 47823 (P. aeruginosa 47823, agar dilution, read-out: MIC); above 200 µg/mL in assay [4].

Turning to `NC[C@@H]1O[C@H](O[C@H]2[C@@H](O)[C@H](O[C@@H]3[C@@H](O)[C@H](N)C[C@H](N)[C@H]3O[C@H]3O[C@H](CN)[C@@H](O)[C@H](O)[C@H]3N)O[C@@H]2CO)[C@H](N)[C@@H](O)[C@@H]1O` [Neomycin B, neomycin B], the MIC against P. mirabilis V 15 is 25 µg/mL (≈ 40.7 µM); against P. sp. V 16, above 100 µg/mL; against P. aeruginosa 5 (5), 50 µg/mL (≈ 81.3 µM); in assay [1] (Staphylococcus aureus, 209P), 1.55 µg/mL (≈ 2.52 µM); against P. aeruginosa 4 (4) it was 25 µg/mL (≈ 40.7 µM); against P. aeruginosa B, above 100 µg/mL. Besides, the MIC against E. coli K 12 R 55 (GNT) turned out to be 6.25 µg/mL (≈ 10.2 µM); in the assay on Proteus vulgaris it was 25 µg/mL (≈ 40.7 µM); in the assay with Escherichia coli K 12 (Escherichia coli) it was 6.25 µg/mL (≈ 10.2 µM); against Proteus mirabilis 525 (Proteus mirabilis, 525) it was 12.5 µg/mL (≈ 20.3 µM); in assay [2], 200 µg/mL (≈ 325 µM); in assay [3] (Pseudomonas aeruginosa, 9229) it was 100 µg/mL (≈ 163 µM). Further, the MIC against P. aeruginosa 19660 (19660) is 50 µg/mL (≈ 81.3 µM); in the assay on P. aeruginosa 53585 (53585) it was above 100 µg/mL; against P. aeruginosa 53825 (53825) it was above 100 µg/mL; against P. aeruginosa 6 (6) it was 25 µg/mL (≈ 40.7 µM); in the assay on P. aeruginosa 47823 (47823), above 100 µg/mL; in [4], above 200 µg/mL.
